The source of these data is patent US20250237628A1, “CELL SELECTION AND/OR STIMULATION DEVICES AND METHODS OF USE” (Juno Therapeutics GmbH, priority 2019, published 2025).

Data set [1] concerns the target Strep-Tactin® (mutein streptavidin, e.g. SEQ ID NO: 4) (Streptomyces avidinii, UniProt P22629, E68V/S69T/V71R). To be noted: background statement, no experiment described; read-out: KD of binding to Strep-Tactin®; cited from earlier work.
Data set [2] relates to CD4+ and CD8+ T cells. The experiment in a line: Intracellular cytokines following stimulation with PMA/Ionomycin and a Golgi inhibitor. It is filed as cell-based, human. The following applies: engineered CD8+ and CD4+ T cells produced in presence of Compound 63.
Another data set concerns mTOR. The experiment in a line: Intracellular S6 phosphorylation (marker of mTOR inhibition) in engineered T cells. The class given is cell-based, human. To be noted: live CD8+ T cells, Temra, Tem subsets; cells produced with vs without Compound 63. Here is the method: (§1) CD4+ and CD8+ T cells were isolated by immunoaffinity-based enrichment from leukapheresis samples from human donor subjects. […] The T cells cultured with our without Compound 63 were incubated overnight (approximately 24 hr) at 37° C., and were then transduced in serum-free culture media with our without Compound 63 ([…]) with a lentiviral vector encoding an anti-CD19 CAR. […] Following transduction, the cells were incubated in serum free media without recombinant cytokines (basal media) and with or without Compound 63 (1 mM) and allowed to incubate at about 37.0° C. in an incubator for up to 96 hours after initiation of the stimulation with the anti-CD3/anti-CD28 oligomeric stimulatory reagent (until day 5 of the process). […] The cryofrozen engineered CD4+ and CD8+ T cells were thawed, and T cells were assessed for intracellular S6 phosphorylation, a ribosomal protein and marker of mTOR inhibition, and co-stained for surface expression of CD4 or CD8 and for CCR7 and CD45RA as markers of memory subsets. pS6 expression in live CD8+ T cells by memory subsets was shown by the expression of CCR7 and CD45RA as shown in FIG. 16A. As shown, incubation with Compound 63 decreased the mean fluorescence intensity of stimulated memory T cell subsets, […], indicating an inhibition of mTOR, while having no significant effect on the percentage or total number of viable cells over time.

The subject of another data set is anti-CD19 CAR T cells. Kind of data set: Long-term stimulation over 12 days with anti-idiotype antibody beads, expansion and survival. The class given is cell-based, human. To be noted: anti-ID beads, cells produced in presence vs absence of compound 63. On the procedure: CD4+ and CD8+ T cells were isolated by immunoaffinity-based enrichment from leukapheresis samples from human donor subjects. At day 1, isolated CD4+ and CD8+ T cells were mixed 1:1 and stimulated with an anti-CD3/anti-CD28 oligomeric stimulatory reagent generated as described in Example 1 in serum-free media supplemented with recombinant IL-2 (100 IU/mL), recombinant IL-7 (600 IU/mL), and recombinant IL-15 (100 IU/mL) with or without 1 μM of 2-(3-hydroxyphenyl)-9-(2-isopropylphenyl)-8-oxo-8,9-dihydro-7H-purine-6-carboxamide (Compound 63). The T cells cultured with our without Compound 63 were incubated overnight (approximately 24 hr) at 37° C., and were then transduced in serum-free culture media with our without Compound 63 ([…]) with a lentiviral vector encoding an anti-CD19 CAR. The CAR contained an scFv antigen-binding domain specific for CD19 (derived from FMC63), a CD28 transmembrane region, a 4-1BB costimulatory signaling region, and a CD3-zeta derived intracellular signaling domain. […]
To further assess the functional activity of the cells, the generated T cell compositions were stimulated long-term over 12 days with beads conjugated with an anti-idiotype (ID) antibody against the anti-CD19 CAR, and expansion and survival of the cells were monitored (FIG. 17F, left panel) and total expansion metric calculated by area under the growth curve (FIG. 17F, right panel, AUC).

The subject of data set [3] is CD4+ and CD8+ T cells. Kind of data set: Viable cells in engineered T cell composition over the process. It is filed as cell-based, human. To be noted: presence vs absence of compound 63 in the process. On the procedure:
as §1

A further data set deals with CAR-T cells. Kind of data set: Intracellular caspase expression (marker of apoptosis) in thawed CAR-T cells. It is filed as cell-based, human. The following applies: incubated with vs without compound 63.
For data set [4], the system named is CD4+ and CD8+ T cells. Kind of data set: Surface expression of CD27 and CCR7 by flow cytometry (phenotypic subset profile). The class given is cell-based, human. To be noted: thawed.

Sequence of Strep-Tactin® (mutein streptavidin, e.g. SEQ ID NO: 4) (P22629 other isoform, or with tags, fused parts or gaps E68V/S69T/V71R): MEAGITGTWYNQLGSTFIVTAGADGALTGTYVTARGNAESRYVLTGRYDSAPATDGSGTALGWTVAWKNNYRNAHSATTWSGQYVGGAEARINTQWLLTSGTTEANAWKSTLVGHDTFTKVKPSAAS

In the case of WSHPQFEK [Strep-Tag® II], the Kd in data set [1] was about 1000 nM.
Regarding `CC(C)c1ccccc1-n1c(=O)[nH]c2c(C(N)=O)nc(-c3cccc(O)c3)nc21` [Compound 63, 2-(3-hydroxyphenyl)-9-(2-isopropylphenyl)-8-oxo-8,9-dihydro-7H-purine-6-carboxamide], the “level of intracellular cytokines IL2, IFNg, or TNF” value in the data set on CD4+ and CD8+ T cells [2] is “substantially improved”. Besides, the “mean fluorescence intensity of pS6 in memory T cell subsets” value in the data set with mTOR is on record as “decreased”. Further, the “function (expansion) following long-term CAR-specific stimulation” value in the data set on anti-CD19 CAR T cells is given as “improved function”. Besides, in the data set on CD4+ and CD8+ T cells [3], the percent viable cells result is reported as “did not impact” and the total live cells result is given as “did not impact”. Also, in the data set with CAR-T cells, the intracellular caspase expression entry was “less intracellular caspase expression”. Also, the “phenotypic subset profile by CD27 and/or CCR7 expression” value in the data set with CD4+ and CD8+ T cells [4] was “did not substantially alter”.

Broadly, the Kd is a measure of binding affinity in units of concentration.
